{"source": "patent US12257245B2", "about": "“Methods and compositions for inhibition of EGF/EGFR pathway in combination with anaplastic lymphoma kinase inhibitors” (In3Bio Ltd., priority 2018, dated 2025)", "key": {"[1]": {"conditions": "in vivo; cited from earlier work"}, "ALK": {"target": "ALK (Homo sapiens, UniProt Q9UM73)", "sequence (Q9UM73 19-1620)": "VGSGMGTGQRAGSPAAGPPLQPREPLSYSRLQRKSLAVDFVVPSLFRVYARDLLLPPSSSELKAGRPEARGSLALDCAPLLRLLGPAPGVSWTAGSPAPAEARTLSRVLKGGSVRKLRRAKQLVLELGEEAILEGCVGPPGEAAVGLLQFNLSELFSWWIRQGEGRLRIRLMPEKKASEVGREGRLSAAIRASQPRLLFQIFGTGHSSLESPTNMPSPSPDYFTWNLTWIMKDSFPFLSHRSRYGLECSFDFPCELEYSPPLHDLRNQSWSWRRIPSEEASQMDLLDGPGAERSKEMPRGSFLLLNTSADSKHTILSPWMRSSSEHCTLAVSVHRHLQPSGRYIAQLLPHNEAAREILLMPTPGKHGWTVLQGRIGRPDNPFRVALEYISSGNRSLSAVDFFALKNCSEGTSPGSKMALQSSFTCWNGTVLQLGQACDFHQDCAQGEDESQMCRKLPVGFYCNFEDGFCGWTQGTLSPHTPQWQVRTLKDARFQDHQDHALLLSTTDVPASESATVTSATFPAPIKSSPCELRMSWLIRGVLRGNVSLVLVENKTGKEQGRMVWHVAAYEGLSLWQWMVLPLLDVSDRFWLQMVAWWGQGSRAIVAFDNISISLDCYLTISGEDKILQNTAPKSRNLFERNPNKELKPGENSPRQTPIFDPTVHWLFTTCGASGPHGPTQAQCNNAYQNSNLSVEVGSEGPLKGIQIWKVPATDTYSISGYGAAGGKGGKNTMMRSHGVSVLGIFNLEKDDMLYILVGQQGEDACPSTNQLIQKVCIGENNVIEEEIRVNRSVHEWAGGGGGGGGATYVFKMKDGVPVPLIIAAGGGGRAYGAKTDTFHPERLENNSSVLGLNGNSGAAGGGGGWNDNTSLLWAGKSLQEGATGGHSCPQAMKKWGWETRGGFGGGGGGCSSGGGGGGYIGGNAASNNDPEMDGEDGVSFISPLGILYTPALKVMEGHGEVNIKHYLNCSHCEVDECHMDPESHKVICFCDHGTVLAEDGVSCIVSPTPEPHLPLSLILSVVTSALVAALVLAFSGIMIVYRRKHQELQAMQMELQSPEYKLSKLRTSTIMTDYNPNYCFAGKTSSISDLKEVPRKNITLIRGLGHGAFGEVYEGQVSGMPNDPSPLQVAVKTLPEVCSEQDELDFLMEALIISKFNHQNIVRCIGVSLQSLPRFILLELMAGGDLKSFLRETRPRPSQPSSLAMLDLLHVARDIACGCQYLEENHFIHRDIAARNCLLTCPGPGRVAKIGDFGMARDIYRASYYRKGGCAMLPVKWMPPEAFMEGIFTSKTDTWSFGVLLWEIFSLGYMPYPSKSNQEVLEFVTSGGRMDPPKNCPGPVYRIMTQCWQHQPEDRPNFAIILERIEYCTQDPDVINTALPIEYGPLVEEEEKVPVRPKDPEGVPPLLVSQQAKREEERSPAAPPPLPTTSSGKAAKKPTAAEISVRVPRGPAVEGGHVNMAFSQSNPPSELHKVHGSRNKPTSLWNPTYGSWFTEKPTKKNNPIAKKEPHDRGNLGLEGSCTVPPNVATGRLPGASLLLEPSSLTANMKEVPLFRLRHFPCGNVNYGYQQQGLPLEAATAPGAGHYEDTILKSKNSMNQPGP", "conditions": "cited from earlier work"}, "[2]": {"system": "pEGFR (TYR 1068), pSTAT3 (TYR 705), pAKT (SER 473), pERK1/2 (THR 202/TYR 204) in DLD1 cells", "assay": "Western blot of signaling in DLD1 cells", "type": "cell-based", "conditions": "2 hour (BVN22E antibodies alone: 2 and 24 hour)", "procedure": "The effects of BVN22E antibodies were investigated in DLD1 cells via Western Blots, see FIGS. 42 and 43.\nThe effect of Trametinib treatment in the DLD1 cell line was also assessed in a western blot assay and the results are presented in FIG. 45. […] Inhibition of pStat3 and pERK1/2 were observed, though only at concentrations beyond the physiological concentrations of Trametinib used in patients.\nBVN22E antibodies alone inhibited phosphorylation of EGFR."}}, "data": [{"smiles": "C[C@H]1Oc2cc(cnc2N)-c2c(nn(C)c2C#N)CN(C)C(=O)c2ccc(F)cc21", "note": "[Lorlatinib]", "values": [{"measurement": "CNS penetration", "setting": "[1]", "result": "highly CNS-penetrant"}]}, {"smiles": "C[C@@H]1CN(C(=O)c2ccc(NC(=O)c3cc(O[C@H](C)c4c(Cl)ccc(F)c4Cl)c(N)nn3)cc2)C[C@H](C)N1", "note": "[Ensartinib]", "values": [{"measurement": "IC50", "setting": "ALK", "result": "< 0.4", "unit": "nM"}]}, {"smiles": "Cc1cc(Nc2ncc(Cl)c(Nc3ccccc3S(=O)(=O)C(C)C)n2)c(OC(C)C)cc1C1CCNCC1", "note": "[Ceritinib]", "values": [{"measurement": "potency for inhibiting alk compared with crizotinib", "setting": "ALK; relative to crizotinib", "result": 20, "unit": "times"}]}, {"smiles": "CC(=O)Nc1cccc(-n2c(=O)n(C3CC3)c(=O)c3c(Nc4ccc(I)cc4F)n(C)c(=O)c(C)c32)c1", "note": "[Trametinib]", "values": [{"measurement": "pEGFR", "setting": "[2]", "result": "no effect"}]}]}
